# Measured values from patent US9326512B2, “Synergistic combination of a flurochloridone compound and zinc pyrithione for dry film protection” (Rohm and Haas Company, priority 2013, dated 2016).
# System: Chlorella sp. ATCC 7516
# Assay: Algal efficacy testing of dry paint films (modified ASTM 5589, 6-well plates)
# Format: cell-based
# Conditions: 3 weeks; for Total conc (lowest total biocide concentration in paint passing ≧75% inhibition): pass level ≧75% algal growth inhibition, dry paint film coupon
# Protocol: These paints were then diluted with an antimicrobial free acrylic/silicone based paint and mixed to prepare targeted concentrations of antimicrobial compounds for the testing. The total biocides concentrations tested were 125, 250, 500, 1000, 2000 and 5000 ppm. After biocides addition or dilution, the paints were mixed 90 seconds with the horse power shaker (AXEL 75M3372/Agitateur SO-10MI) until uniformity was achieved. Paints containing different antimicrobial compounds at the same levels were mixed together in order to obtain the desired ratio of antimicrobial compounds. After one day, the paints were applied to Schleicher & Schuell filter paper at 280 μm wft and dried for 3 days at room temperature avoiding direct exposure to sunlight. Square discs (1.6 cm×1.6 cm) were cut out from each panel and were used as the substrate for algal efficacy tests. This sample size allowed for an agar border when the sample disc was placed into the well of the test plate.
# Algal efficacy was tested according to modified ASTM 5589 which is a standard accelerated test method for determining resistance of various coatings (including paints) to algal defacement. To accommodate for high-throughput screening, this method was scaled down from petri dishes to 6-well plates. Bold Modified Basal Freshwater Nutrient Solution was used as growth medium. A single coated filter paper coupon was placed with a pair of sterile forceps at the center of the agar plug (on top) with the painted surface facing upwards.
# Each well that contains a tested coupon was inoculated with 1750 μl of algal suspensions (1×10^6 cfu/ml) making sure that the whole surface (paint film as well as the agar surrounding it) was evenly covered. The plates were incubated at room temp (21° C.-25° C.) with cyclic exposure to light and dark phases, for a period of three weeks.
# At the end of the three week incubation period, the samples were scored for percent inhibition regarding color intensity compared to the blank sample.
# The Synergy Index calculation was performed as follows.
# The SI is calculated based on F. C.
# SI value of <1 in the formula indicates a synergism of the blended biocides exists.
# The minimal targeted inhibition was set at 75%, meaning a coupon with at least 75% algal growth inhibition was considered as a pass.
Compound,Total conc (lowest total biocide concentration in paint passing ≧75% inhibition) [ppm],"inhibition at 5000 ppm (504 h, total conc 5000 ppm in paint) [%]",% inhibition (total conc 500 ppm in paint) [%]
"O=C1C(Cl)C(CCl)CN1c1cccc(C(F)(F)F)c1 (stereo not shown) [Flurochloridone, 3-chloro-4-(chloromethyl)-1-[3-(trifluoromethyl)phenyl]-2-pyrrolidinone]",5000,85,
"[O-][n+]1ccccc1[S][Zn][S]c1cccc[n+]1[O-] [ZnPT, bis(2-pyridylthio)zinc 1,1′-dioxide]",500,,95
